Measured values taken from patent US20160039852A1, “THERAPEUTIC USES OF BISPHOSPHONATES” (THE UNIVERSITY OF SHEFFIELD, priority 2013, published 2016).
Entries after “also recorded” stand apart in the source; their conditions may differ.

Legend:
[1] = system: normal human dermal fibroblasts; assay: γH2AX DNA damage foci in human dermal fibroblasts after irradiation; assay type: cell-based; details: 1Gy, Zol (1 μM)
Procedure: (B) Number of yH2AX DNA damage foci in human dermal fibroblasts (n=4 cultures) not irradiated (UI) or exposed to irradiation (IR) 1Gy in the presence or absence of Zol (1 μM) and with the addition of Farnesol (FOH) or geranylgeraniol (GGOH).

murine tissues = assay: Immuno-staining of γH2AX in murine tissue following irradiation; assay type: in vivo, C57BL6/J mice; details: 3Gy irradiation, Zol 125 μg/kg i.p. for 3 days, 12 h post irradiation
Excerpt: Cells were viewed using in an Inverted Zeiss LSM 510 NLO microscope equipped with Argon (Ar) laser (488 nm) 30 mW to image the fluorescent marker FITC and UV lamp to image DAPI stained nuclei.

[2] = system: normal human dermal fibroblasts; assay: Human dermal fibroblast growth, cumulative population doublings; assay type: cell-based
Excerpt: Cultures (n=3) grown in PBS senesced after 17-21 population doublings (PDs) (square symbols) whereas cultures grown in presence of Zol were still proliferating after 27-34 PDs (triangle symbols).

[3] = system: 5T33 Multiple Myeloma line; assay: γH2AX DNA damage foci in 5T33 multiple myeloma line after irradiation; assay type: cell-based, murine; details: 1 μM Zol for 3 days prior to 1Gy, γH2AX 4 h later
Procedure: 5T33MM were exposed to 1 μM Zol for 3 days prior to irradiation at 1Gy and assessment of γH2AX 4 h later (Zol). UI, are hMSC non irradiated, PBS, are hMSC irradiated in absence of Zol. Data are expressed as mean±SEM and were analysed by one way ANOVA and Bonferroni post-test for multiple comparison *p<0.05, **p<0.01, ***p<0.001
DNA damage was induced by exposing hMSC to ^137Cs Gamma source. Cells were washed with PBS and fixed with 4% Para-formaldehyde for 15mins. Cells were then washed with PBS permeabilized with 0.5% Triton-X (Sigma, UK) for 2mins and blocked with 5% normal goat serum (DAKO, Glostrup, Denmark) in PBS for 1 hr. This was followed by incubation with primary antibody, anti-phospho histone H2AX (Ser139) (Millipore, Massachusetts, USA) used at 1:800 in 5% normal goat serum, overnight at 4° C. Cells were then washed in PBS and incubated in secondary Anti mouse IgG Fluorescein Isothiocyanate (FITC) conjugated (Insight Biotechnology, Santa Cruz, USA) at 1:200 in PBS for 1 hour at room temperature. The cover-slips were mounted on slides with mounting media (VectaShield) containing 4′,6-diamidino-2-phenylindole (DAPI) to stain the nuclei. […] Five to seven fields consisting of 25 cells in total were randomly selected from a tile scan (20×) and individual cells viewed at 63× were then scored for γH2AX DNA damage foci using ImageJ 1.45 software (http://rsbweb.nih.gov/ij/).

[4] = system: human mesenchymal stem cells (hMSC); assay: Expression of osteogenic and adipogenic differentiation markers in hMSC; assay type: cell-based; details: CBFA-1, OPN, ALP, OC, LPL, PPAR-γ normalised to L-32; 14 days supplements
[5] = system: human mesenchymal stem cells (hMSC); assay: Immunostaining of γH2AX DNA damage foci (double stranded breaks) in hMSC; assay type: cell-based
Procedure: DNA damage was induced by exposing hMSC to ^137Cs Gamma source. Cells were washed with PBS and fixed with 4% Para-formaldehyde for […]. Cells were then washed with PBS permeabilized with 0.5% Triton-X (Sigma, UK) for […] and blocked with 5% normal goat serum (DAKO, Glostrup, Denmark) in PBS for 1 hr. This was followed by incubation with primary antibody, anti-phospho histone H2AX (Ser139) (Millipore, Massachusetts, USA) used at 1:800 in 5% normal goat serum, overnight at 4° C. Cells were then washed in PBS and incubated in secondary Anti mouse IgG Fluorescein Isothiocyanate (FITC) conjugated (Insight Biotechnology, Santa Cruz, USA) at 1:200 in PBS for 1 hour at room temperature. The cover-slips were mounted on slides with mounting media (VectaShield) containing 4',6-diamidino-2-phenylindole (DAPI) to stain the nuclei. […] Cells were viewed using in an Inverted Zeiss LSM 510 NLO microscope equipped with Argon (Ar) laser (488 nm) 30 mW to image the fluorescent marker FITC and UV lamp to image DAPI stained nuclei. Five to seven fields consisting of 25 cells in total were randomly selected from a tile scan (20×) and individual cells viewed at 63× were then scored for γH2AX DNA damage foci using ImageJ 1.45 software (http://rsbweb.nih.gov/ij/). One of the factors affecting cellular lifespan is accumulation of DNA damage.

[6] = system: human mesenchymal stem cells (hMSC); assay: hMSC growth kinetics, cumulative population doublings with time in culture; assay type: cell-based
unprenylated RAP1A = assay: Unprenylation (unprenylated RAP1A) in murine tissues following treatment; assay type: in vivo, C57BL6/J mice; details: Zol 125 μg/kg, i.p., 3 days, n=6 mice/group
Procedure: For in vivo murine experiments C57BL6/J mice aged 8-10 weeks were used. All animals were housed in a conventional, non- specific pathogen free (SPF), mouse facility at the Medical School, University of Sheffield. Mice were fed on a commercially prepared pelleted diet and given water ad libitum. A minimum of 6 mice were used in each experimental group. Depending on the experimental groups, mice were injected either with Zoledronate(single dose, 125 μg/kg) or PBS ip, and sacrificed for tissue collection 3 days after the injection. Snap-frozen tissues were lysed for protein extraction using a tissue homogenizer and mammalian cell lysis buffer containing phosphatase and protease inhibitors. Protein lysates were run on 12% Tris-glycine gels and assessed for unprenylated RAP1A detected by sc1482 antibody RAP1A (Santacruz, USA) at 1:1000 dilution and GAPDH at 1:10000 dilution as described earlier.

SMILES: O=P(O)(O)C(O)(Cn1ccnc1)P(=O)(O)O [Zoledronate]
- DNA repair ability following irradiation (γH2AX foci) [1]: enhances DNA repair ability
- levels of DNA damage (γH2AX foci) in murine tissues (murine tissues): decreased levels of DNA damage
- lifespan of normal human dermal fibroblasts [2]: extends lifespan
- population doublings after which cultures were still proliferating ([2]; human dermal fibroblasts in presence of Zol, PBS cultures senesced after 17-21 PDs, n=3): 27-34 PDs
- DNA repair capacity (γH2AX foci) [3]: does not enhance the DNA repair capacity
- expression of osteogenic and adipogenic differentiation markers [4]: increased
- DNA repair (γH2AX DNA damage foci), FIG. 9 ([5]; 1 μM, 4 hours after irradiation, Compound C compared with Zol): significant decrease
- number of γH2AX DNA damage foci after irradiation ([5]; 1Gy irradiation, compound at 1 μM, foci at 4 h (Zol also 12, 24 h) versus PBS, listed as Zol): significant decrease; also recorded: significant reduction
- number of γH2AX DNA damage foci after irradiation ([5]; 3 and 5Gy irradiation (data not shown)): significant decrease
- number of γH2AX DNA damage foci, dose response ([5]; increasing dosing with Zol): reduced number of DNA damage foci
- incidence of DNA damage foci with passage ([5]; passage 3 (early) and p10 (late), no irradiation, listed as Zol): significantly higher in untreated hMSC; also recorded: reduced
- population doublings after which cultures were still proliferating ([6]; hMSC grown in presence of Zol (1 μM), PBS cultures senesced after 21-27 PDs, n=3): 29-36 PDs
- ability of hMSC to proliferate and differentiate following irradiation ([6]; irradiated at 3 Gy, Zol for 3 days, washed off 12 h later): rescues hMSCs ability to proliferate and differentiate
- hMSC life span / time of proliferation in culture ([6]; versus PBS control, listed as Zol): extension of life span; also recorded: proliferated for a longer time than control cells
- levels of Rap1A unprenylation in murine tissues (unprenylated RAP1A): increased levels of Rap1A unprenylation
